This is an account of results in PubChem BioAssay (NCI).

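Results reflect a 48-hour exposure of cells in 96-well plates to compound at five concentrations. The concentration for 50% growth inhibition is given as GI50. TGI denotes the concentration required for complete inhibition of growth.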 Some results are limits rather than exact numbers.

Test systems include MALME-3M melanoma; U251 CNS; SR leukemia; OVCAR-5 ovarian; HCT-116 colon; UO-31 renal; EKVX NSCLC; HL-60(TB) leukemia; SW-620 colon; LOX IMVI melanoma.
Common to all, as to test: NCI tumour cell line growth inhibition, 48 h

As for `Cc1c(-c2c(F)cc(C(N)=O)c3[nH]c4c(c23)CC[C@H](C(C)(C)O)C4)cccc1-n1c(=O)c2cccc(F)c2n(C)c1=O`, the GI50 is 1.84 µM in the assay with MALME-3M melanoma; 6.07 µM in the assay with U251 CNS; 1.88 µM in the assay on SR leukemia; 2.83 µM in the assay on OVCAR-5 ovarian; 2.66 µM with HCT-116 colon; 1.01 µM in the assay on UO-31 renal. Besides, the GI50 in the assay with EKVX NSCLC is 1.95 µM; in the assay with HL-60(TB) leukemia it was 0.971 µM; with SW-620 colon, 2.44 µM; with LOX IMVI melanoma it was 3.13 µM. The TGI in the assay on MALME-3M melanoma was 28.2 µM; in the assay on U251 CNS, over 100 µM; with SR leukemia it was 5.81 µM; in the assay on OVCAR-5 ovarian, over 100 µM; in the assay on HCT-116 colon it was over 100 µM; with UO-31 renal, 5.59 µM. Moreover, the TGI in the assay with EKVX NSCLC is over 100 µM; in the assay with HL-60(TB) leukemia it was 3.22 µM; with SW-620 colon, over 100 µM; with LOX IMVI melanoma it was over 100 µM.

As for `Cc1cccc(Nc2ncc(-c3ccccc3)o2)c1`, the GI50 in the assay with MALME-3M melanoma, with U251 CNS, with SR leukemia, with OVCAR-5 ovarian, with HCT-116 colon and with UO-31 renal was over 25 µM throughout. Also, the GI50 with EKVX NSCLC, in the assay on HL-60(TB) leukemia, with SW-620 colon and in the assay with LOX IMVI melanoma was over 25 µM each time. For the same molecule, the TGI in the assay on MALME-3M melanoma, with U251 CNS, in the assay with SR leukemia, in the assay on OVCAR-5 ovarian, in the assay with HCT-116 colon and in the assay with UO-31 renal was over 25 µM throughout. The TGI with EKVX NSCLC, in the assay on HL-60(TB) leukemia, with SW-620 colon and in the assay with LOX IMVI melanoma was over 25 µM in each case.

Take `NC1=NN(c2ccccc2)C(=O)C1/C(=N\NC(=O)c1cc2ccccc2cc1O)C(=O)Nc1ccc(Cl)c(Cl)c1` (stereo not given): the TGI is 97.6 µM in the assay with MALME-3M melanoma; over 100 µM in the assay on U251 CNS; 5.71 µM in the assay with SR leukemia; over 100 µM in the assay with OVCAR-5 ovarian; over 100 µM with HCT-116 colon; over 100 µM in the assay on UO-31 renal. Further, the TGI in the assay on EKVX NSCLC is 63.6 µM; with HL-60(TB) leukemia, 39.8 µM; in the assay with SW-620 colon it was over 100 µM; in the assay with LOX IMVI melanoma, over 100 µM.

For `CN(N=O)N1C(=O)SCC(c2ccccc2)(c2ccccc2)C1=O`, the TGI with MALME-3M melanoma, in the assay on U251 CNS, in the assay on SR leukemia, with OVCAR-5 ovarian, in the assay with HCT-116 colon and in the assay with UO-31 renal was over 100 µM each time. The TGI in the assay with EKVX NSCLC, with HL-60(TB) leukemia, in the assay on SW-620 colon and with LOX IMVI melanoma was over 100 µM throughout.

For `NC(=O)C1CCCN1Cc1ccc2c(c1)OCO2` (stereo not given), the TGI with MALME-3M melanoma, in the assay on U251 CNS, in the assay on SR leukemia, in the assay on OVCAR-5 ovarian, in the assay with HCT-116 colon and in the assay on UO-31 renal was over 100 µM throughout. Also, the TGI in the assay with EKVX NSCLC, with HL-60(TB) leukemia, in the assay on SW-620 colon and in the assay on LOX IMVI melanoma was over 100 µM in each case.

`COc1ccc2c(c1)C(=O)CC(C(N)=O)C2` (stereo not given): the TGI in the assay with MALME-3M melanoma, in the assay with U251 CNS, with SR leukemia, with OVCAR-5 ovarian, in the assay with HCT-116 colon and with UO-31 renal was over 100 µM in each case. Moreover, the TGI in the assay with EKVX NSCLC, with HL-60(TB) leukemia, in the assay on SW-620 colon and in the assay with LOX IMVI melanoma was over 100 µM in each case.

Regarding `CCCCCCCCCCCCCC(=O)OCC1OC(=O)C(O)C1O` (stereo not given), the TGI in the assay with MALME-3M melanoma, with U251 CNS, with SR leukemia, with OVCAR-5 ovarian, with HCT-116 colon and with UO-31 renal was over 100 µM each time. Besides, the TGI with EKVX NSCLC, in the assay on HL-60(TB) leukemia, in the assay with SW-620 colon and with LOX IMVI melanoma was over 100 µM each time.

As for `CC(C)Cc1cc(-c2cccn2C)c(C#N)c(=O)[nH]1`, the GI50 is over 100 µM in the assay on MALME-3M melanoma; over 100 µM in the assay on U251 CNS; 59.7 µM with SR leukemia; over 100 µM with OVCAR-5 ovarian; over 100 µM in the assay on HCT-116 colon; over 100 µM with UO-31 renal. The GI50 is over 100 µM with EKVX NSCLC, 45.8 µM in the assay on HL-60(TB) leukemia, over 100 µM in the assay with SW-620 colon and over 100 µM with LOX IMVI melanoma. The TGI in the assay with MALME-3M melanoma, in the assay on U251 CNS, in the assay on SR leukemia, with OVCAR-5 ovarian, in the assay on HCT-116 colon and in the assay on UO-31 renal was over 100 µM each time. For the same molecule, the TGI in the assay on EKVX NSCLC, with HL-60(TB) leukemia, with SW-620 colon and in the assay on LOX IMVI melanoma was over 100 µM each time.

`O=C(Nc1ccn(C2CCC(COC(c3ccccc3)(c3ccccc3)c3ccccc3)O2)c(=O)n1)c1ccccc1` (stereo not given): the TGI with MALME-3M melanoma came out at 9.91 µM; in the assay with U251 CNS, 13.8 µM; in the assay on SR leukemia, 4.82 µM; with OVCAR-5 ovarian it was 7.95 µM; in the assay with HCT-116 colon it was 11.9 µM; in the assay with UO-31 renal, 14.1 µM. The TGI is 14.4 µM in the assay with EKVX NSCLC, 4.7 µM in the assay with HL-60(TB) leukemia, 15.2 µM in the assay on SW-620 colon and 7.02 µM in the assay with LOX IMVI melanoma.
